Results as given in patent publication US12404244B2, “Pan-KIT kinase inhibitor having quinoline structure and application thereof” (Tarapeutics Science Inc., priority 2018, dated 2025).
Like-named read-outs stand apart in the source and are kept apart here.

What was measured:
TEL-KIT/V560D-BaF3 = assay: Proliferation of TEL-KIT/V560D-BaF3 cells (CCK-8); assay type: cell-based; details: Mus musculus, read-out: GI50 TEL-KIT/V560D-BaF3
Description: (§1) Compounds as provided herein were further evaluated for their inhibitory effects on proliferation of cancer cells by testing their effects on growth of cancer cells. In this example the following cells were used: primary mouse B cells BaF3 (purchased from ATCC), GIST-T1 cells of the human gastrointestinal stromal tumor cell line (expressing wild-type KIT gene) (purchased from Cosmo Bio Co., Ltd. (Japan)). The present lab further constructed and used the following: mouse Tel-Kit-BaF3 (stably expressing KIT wild-type kinase), mouse Tel-Kit/T670I-BaF3 (stably expressing KIT T670I mutant kinase), mouse Tel-Kit/V559A-BaF3 (stably expressing KIT V559A mutant kinase), mouse Tel-Kit/V559D-BaF3 (stably expressing KIT V559D mutant kinase), mouse Tel-Kit/V559G-BaF3 (stably expressing KIT V559G mutant kinase), mouse Tel-Kit/V560D-BaF3 (stably expressing KIT V560D mutant kinase), mouse Tel-Kit/L576P-BaF3 (stably expressing KIT L576P mutant kinase), mouse Tel-Kit/V654A-BaF3 (stably expressing KIT V654A mutant kinase), mouse Tel-Kit/V654A/V559D-BaF3 (stably expressing KIT V654A V559D mutant kinase), mouse Tel-Kit/T670E-BaF3 (stably expressing KIT T670E mutant kinase), mouse Tel-Kit/T670I/V559D-BaF3 (stably expressing KIT T670I V559D mutant kinase), mouse Tel-Kit/S709F-BaF3 (stably expressing KIT S709F mutant kinase), mouse Tel-Kit/D816E-BaF3 (stably expressing KIT D816E mutant kinase), mouse Tel-Kit/D816H-BaF3 (stably expressing KIT D816H mutant kinase), mouse Tel-Kit/D820E-BaF3 (stably expressing KIT D820E mutant kinase), mouse Tel-Kit/D820G-BaF3 (stably expressing KIT D820G mutant kinase), mouse Tel-Kit/D820Y-BaF3 (stably expressing KIT D820Y mutant kinase), mouse Tel-Kit/N822K-BaF3 (stably expressing KIT N822K mutant kinase), mouse Tel-Kit/Y823D-BaF3 (stably expressing KIT Y823D mutant kinase), mouse Tel-Kit/A829P-BaF3 (stably expressing KIT A829P mutant kinase), GIST-T1-T670I cells of the human gastrointestinal stromal tumor cell line (expressing KIT-T670I mutant gene). The above cell lines were constructed by: amplifying respectively the sequences of human KIT and various mutant kinase regions of KIT via PCR, inserting the fragments respectively into MSCV-Puro vectors having a N-terminal TEL fragment and/or a NPM fragment and/or a TPR fragment (purchased from Clontech), transfecting mouse BaF3 cells with the vectors by means of retrovirus to obtain stably transfected cells, removing the growth factor IL-3, and thereby eventually obtaining cell lines that depend on the transferred protein KIT or various mutants of KIT. […]

TEL-KIT/D820G-BaF3 = assay: Proliferation of TEL-KIT/D820G-BaF3 cells (CCK-8); assay type: cell-based; details: Mus musculus, read-out: GI50 TEL-KIT/D820G-BaF3
Description: as §1

TEL-KIT/V654A/V559D-BaF3 = assay: Proliferation of TEL-KIT/V654A/V559D-BaF3 cells (CCK-8); assay type: cell-based; details: Mus musculus, read-out: GI50 TEL-KIT/V654A/V559D-BaF3
Description: as §1

TEL-KIT/T670I-BaF3 = assay: Proliferation of TEL-KIT/T670I-BaF3 cells (CCK-8); assay type: cell-based, mouse; details: Mus musculus, read-out: GI50 TEL-KIT/T670I-BaF3
Description: Compounds as provided herein were further evaluated for their inhibitory effects on proliferation of cancer cells by testing their effects on growth of cancer cells. In this example the following cells were used: primary mouse B cells BaF3 (purchased from ATCC), GIST-T1 cells of the human gastrointestinal stromal tumor cell line (expressing wild-type KIT gene) (purchased from Cosmo Bio Co., Ltd. (Japan)). The present lab further constructed and used the following: mouse Tel-Kit-BaF3 (stably expressing KIT wild-type kinase), mouse Tel-Kit/T670I-BaF3 (stably expressing KIT T670I mutant kinase), mouse Tel-Kit/V559A-BaF3 (stably expressing KIT V559A mutant kinase), mouse Tel-Kit/V559D-BaF3 (stably expressing KIT V559D mutant kinase), mouse Tel-Kit/V559G-BaF3 (stably expressing KIT V559G mutant kinase), mouse Tel-Kit/V560D-BaF3 (stably expressing KIT V560D mutant kinase), mouse Tel-Kit/L576P-BaF3 (stably expressing KIT L576P mutant kinase), mouse Tel-Kit/V654A-BaF3 (stably expressing KIT V654A mutant kinase), mouse Tel-Kit/V654A/V559D-BaF3 (stably expressing KIT V654A V559D mutant kinase), mouse Tel-Kit/T670E-BaF3 (stably expressing KIT T670E mutant kinase), mouse Tel-Kit/T670I/V559D-BaF3 (stably expressing KIT T670I V559D mutant kinase), mouse Tel-Kit/S709F-BaF3 (stably expressing KIT S709F mutant kinase), mouse Tel-Kit/D816E-BaF3 (stably expressing KIT D816E mutant kinase), mouse Tel-Kit/D816H-BaF3 (stably expressing KIT D816H mutant kinase), mouse Tel-Kit/D820E-BaF3 (stably expressing KIT D820E mutant kinase), mouse Tel-Kit/D820G-BaF3 (stably expressing KIT D820G mutant kinase), mouse Tel-Kit/D820Y-BaF3 (stably expressing KIT D820Y mutant kinase), mouse Tel-Kit/N822K-BaF3 (stably expressing KIT N822K mutant kinase), mouse Tel-Kit/Y823D-BaF3 (stably expressing KIT Y823D mutant kinase), mouse Tel-Kit/A829P-BaF3 (stably expressing KIT A829P mutant kinase), GIST-T1-T670I cells of the human gastrointestinal stromal tumor cell line (expressing KIT-T670I mutant gene). The above cell lines were constructed by: amplifying respectively the sequences of human KIT and various mutant kinase regions of KIT via PCR, inserting the fragments respectively into MSCV-Puro vectors having a N-terminal TEL fragment and/or a NPM fragment and/or a TPR fragment (purchased from Clontech), transfecting mouse BaF3 cells with the vectors by means of retrovirus to obtain stably transfected cells, removing the growth factor IL-3, and thereby eventually obtaining cell lines that depend on the transferred protein KIT or various mutants of KIT. The GIST-T1-T670I (expressing C-KIT-T670I mutant gene) cell line was constructed by our laboratory as follows: designing sgRNA that targeted a region around T670 of the KIT gene with CRISPR Design Tool (website: crispr.mit.edu, Zhang Feng Lab), cloning it into pSpCas9(BB)-2A-Puro vector; co-transfecting cells with the resultant vector and a single-stranded oligonucleotide having T670I site mutation that is near to T670, subjecting the resultant to antibiotics screening, followed by dilution, and monocellular culture in a 96-well plate; validating the site T670 of the cells by sequence detection via Sanger sequencing.

GIST-T1 = assay: Proliferation of GIST-T1 cells (CCK-8); assay type: cell-based; details: Homo sapiens, read-out: GI50 GIST-T1
Description: as §1, with “gene).” for “gene). The above cell lines were constructed by: amplifying respectively the sequences of human KIT and various mutant kinase regions of KIT via PCR, inserting the fragments respectively into MSCV-Puro vectors having a N-terminal TEL fragment and/or a NPM fragment and/or a TPR fragment (purchased from Clontech), transfecting mouse BaF3 cells with the vectors by means of retrovirus to obtain stably transfected cells, removing the growth factor IL-3, and thereby eventually obtaining cell lines that depend on the transferred protein KIT or various mutants of KIT.”
The cells after incubation were detected using CCK-8 (purchased from MedChem Express, Shanghai, China) cell viability assay kit (CCK-8 may be reduced by dehydrogenase in living cells to a highly water-soluble yellow formazan product, and the amount of the resultant formazan is proportional to the number of living cells), the number of living cells were quantified with a microplate reader, and GI50 of the compounds and the control compounds were calculated (the results shown in Table 2 and Table 3).

TEL-KIT/V654A-BaF3 = assay: Proliferation of TEL-KIT/V654A-BaF3 cells (CCK-8); assay type: cell-based; details: Mus musculus, read-out: GI50 TEL-KIT/V654A-BaF3
Description: as §1

TEL-KIT/L576P-BaF3 = assay: Proliferation of TEL-KIT/L576P-BaF3 cells (CCK-8); assay type: cell-based; details: Mus musculus, read-out: GI50 TEL-KIT/L576P-BaF3
Description: as §1, with “gene).” for “gene). The above cell lines were constructed by: amplifying respectively the sequences of human KIT and various mutant kinase regions of KIT via PCR, inserting the fragments respectively into MSCV-Puro vectors having a N-terminal TEL fragment and/or a NPM fragment and/or a TPR fragment (purchased from Clontech), transfecting mouse BaF3 cells with the vectors by means of retrovirus to obtain stably transfected cells, removing the growth factor IL-3, and thereby eventually obtaining cell lines that depend on the transferred protein KIT or various mutants of KIT.”

TEL-KIT/D820E-BaF3 = assay: Proliferation of TEL-KIT/D820E-BaF3 cells (CCK-8); assay type: cell-based; details: Mus musculus, read-out: GI50 TEL-KIT/D820E-BaF3
Description: as §1

TEL-KIT/D816E-BaF3 = assay: Proliferation of TEL-KIT/D816E-BaF3 cells (CCK-8); assay type: cell-based; details: Mus musculus, read-out: GI50 TEL-KIT/D816E-BaF3
Description: as §1

TEL-KIT/Y823D-BaF3 = assay: Proliferation of TEL-KIT/Y823D-BaF3 cells (CCK-8); assay type: cell-based; details: Mus musculus, read-out: GI50 TEL-KIT/Y823D-BaF3
Description: as §1

TEL-KIT/V559A-BaF3 = assay: Proliferation of TEL-KIT/V559A-BaF3 cells (CCK-8); assay type: cell-based; details: Mus musculus, read-out: GI50 TEL-KIT/V559A-BaF3
Description: as §1

TEL-KIT/V559G-BaF3 = assay: Proliferation of TEL-KIT/V559G-BaF3 cells (CCK-8); assay type: cell-based; details: Mus musculus, read-out: GI50 TEL-KIT/V559G-BaF3
Description: as §1

TEL-KIT/D816H-BaF3 = assay: Proliferation of TEL-KIT/D816H-BaF3 cells (CCK-8); assay type: cell-based; details: Mus musculus, read-out: GI50 TEL-KIT/D816H-BaF3
Description: as §1

TEL-KIT/S709F-BaF3 = assay: Proliferation of TEL-KIT/S709F-BaF3 cells (CCK-8); assay type: cell-based; details: Mus musculus, read-out: GI50 TEL-KIT/S709F-BaF3
Description: as §1

Row | Compound | GI50 (TEL-KIT/V560D-BaF3; 72 hours, CCK-8) [nM] | GI50 (TEL-KIT/D820G-BaF3; 72 hours, CCK-8) [nM] | GI50 (TEL-KIT/V654A/V559D-BaF3; 72 hours, CCK-8) [nM] | GI50 (TEL-KIT/T670I-BaF3; 72 hours, CCK-8) [nM] | GI50 (GIST-T1; GISTT1, 72 hours, CCK-8) [nM] | GI50 (TEL-KIT/V654A-BaF3; 72 hours, CCK-8) [nM] | GI50 (TEL-KIT/L576P-BaF3; 72 hours, CCK-8) [nM] | GI50 (TEL-KIT/D820E-BaF3; 72 hours, CCK-8) [nM] | GI50 (TEL-KIT/D816E-BaF3; 72 hours, CCK-8) [nM] | GI50 (TEL-KIT/Y823D-BaF3; 72 hours, CCK-8) [nM] | GI50 (TEL-KIT/V559A-BaF3; 72 hours, CCK-8) [nM] | GI50 (TEL-KIT/V559G-BaF3; 72 hours, CCK-8) [nM] | GI50 (TEL-KIT/D816H-BaF3; 72 hours, CCK-8) [nM] | GI50 (TEL-KIT/S709F-BaF3; 72 hours, CCK-8) [nM] | also measured
1 | COc1cc2nccc(Oc3ccc(NC(=O)Cc4ccc(Cl)c(C(F)(F)F)c4)cc3)c2cc1OC [Example 2, N-(4-((6,7-dimethoxyquinolin-4-yl)oxy)phenyl)-2-(4-chloro-3-(trifluoromethyl)phenyl)-acetamide] | 4 | 9 | 42 | 4 | 6 | 320 | 1 | 1 | 16 | 35 | 21 | < 0.3 | 97 | 17 | 
2 | CCN(CC)CCNC(=O)c1c(C)[nH]c(/C=C2\C(=O)Nc3ccc(F)cc32)c1C [Sunitinib, reference compound] | 35 | 389 | 19 | 21 | 11 | 5 | 6 | 93 | 59 | 704 | 20 | 4 | 315 | 28 | 
3 | COc1cc2nccc(Oc3ccc(NC(=O)Cc4ccc(C)c(C(F)(F)F)c4)cc3)c2cc1OC [Example 1, N-(4-((6,7-dimethoxyquinolin-4-yl)oxy)phenyl)-2-(4-methyl-3-(trifluoromethyl)phenyl)acetamide] |  |  |  |  |  |  |  |  |  |  |  |  |  |  | GI50 (TEL-KIT/V560D-BaF3; 72 h): 5 nM; GI50 (TEL-KIT/D820G-BaF3; 72 h): 9 nM; GI50 (TEL-KIT/V654A/V559D-BaF3; 72 h): 39 nM; GI50 (TEL-KIT/T670I-BaF3; 72 h): 14 nM; GI50 (GIST-T1; GISTT1, 72 h): 5 nM; GI50 (TEL-KIT/V654A-BaF3; 72 h): 110 nM; GI50 (TEL-KIT/L576P-BaF3; 72 h): 2 nM; GI50 (TEL-KIT/D820E-BaF3; 72 h): 5 nM; GI50 (TEL-KIT/D816E-BaF3; 72 h): 9 nM; GI50 (TEL-KIT/Y823D-BaF3; 72 h): 15 nM; GI50 (TEL-KIT/V559A-BaF3; 72 h): 16 nM; GI50 (TEL-KIT/V559G-BaF3; 72 h): < 0.3 nM; GI50 (TEL-KIT/D816H-BaF3; 72 h): 58 nM; GI50 (TEL-KIT/S709F-BaF3; 72 h): 11 nM
